For experiment [1], the target named is T1, Son of sevenless homolog 1 (Homo sapiens, UniProt Q07889).
T1 sequence (Q07889 whole entry): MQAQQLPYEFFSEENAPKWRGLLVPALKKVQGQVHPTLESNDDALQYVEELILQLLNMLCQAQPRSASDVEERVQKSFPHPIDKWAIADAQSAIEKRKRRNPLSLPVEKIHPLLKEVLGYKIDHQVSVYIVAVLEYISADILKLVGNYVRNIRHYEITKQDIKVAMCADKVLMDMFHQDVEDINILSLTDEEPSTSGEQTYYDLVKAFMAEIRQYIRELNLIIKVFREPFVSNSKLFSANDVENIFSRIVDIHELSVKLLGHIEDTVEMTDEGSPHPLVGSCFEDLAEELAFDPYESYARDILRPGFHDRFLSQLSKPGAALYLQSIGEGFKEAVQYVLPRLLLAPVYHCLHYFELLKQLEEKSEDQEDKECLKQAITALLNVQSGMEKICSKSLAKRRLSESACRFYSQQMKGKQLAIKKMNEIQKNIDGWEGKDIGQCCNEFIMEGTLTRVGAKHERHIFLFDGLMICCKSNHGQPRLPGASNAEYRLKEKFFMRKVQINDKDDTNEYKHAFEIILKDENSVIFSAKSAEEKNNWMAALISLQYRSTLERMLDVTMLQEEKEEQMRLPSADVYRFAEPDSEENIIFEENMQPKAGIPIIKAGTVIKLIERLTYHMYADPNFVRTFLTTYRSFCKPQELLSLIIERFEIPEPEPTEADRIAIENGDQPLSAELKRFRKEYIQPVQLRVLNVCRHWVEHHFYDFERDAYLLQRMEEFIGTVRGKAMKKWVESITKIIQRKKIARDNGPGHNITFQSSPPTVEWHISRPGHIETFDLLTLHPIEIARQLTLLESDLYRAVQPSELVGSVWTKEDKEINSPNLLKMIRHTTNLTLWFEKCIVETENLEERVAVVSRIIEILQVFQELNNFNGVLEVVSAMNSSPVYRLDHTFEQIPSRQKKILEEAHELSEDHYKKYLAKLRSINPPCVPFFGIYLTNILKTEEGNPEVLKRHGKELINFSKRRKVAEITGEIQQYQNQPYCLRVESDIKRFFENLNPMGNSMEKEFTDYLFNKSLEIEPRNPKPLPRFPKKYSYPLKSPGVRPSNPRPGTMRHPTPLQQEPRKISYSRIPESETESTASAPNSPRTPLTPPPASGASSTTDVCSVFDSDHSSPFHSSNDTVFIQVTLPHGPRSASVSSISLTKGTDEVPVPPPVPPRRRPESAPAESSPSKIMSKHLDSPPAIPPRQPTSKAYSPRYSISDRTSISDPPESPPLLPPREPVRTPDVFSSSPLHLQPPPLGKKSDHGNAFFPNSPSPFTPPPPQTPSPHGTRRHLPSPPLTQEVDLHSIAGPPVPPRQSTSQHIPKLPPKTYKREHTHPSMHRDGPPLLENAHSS
Nature of the experiment: Inhibition of SOS1 in human HeLa cells assessed as reduction in RAS activation pretreated for 30 mins followed by EGF stimulation for 3 mins by G-LISA analysis. The experiment is classed as cell-based.

The target of experiment [2] is STE20-like serine/threonine-protein kinase (Homo sapiens) (UniProt Q9H2G2). The experiment is described as follows: Inhibition of SLK (unknown origin) assessed as residual activity at 100 nM by KINOMEscan analysis relative to control.
Chain of STE20-like serine/threonine-protein kinase (Homo sapiens) (Q9H2G2 whole entry, looked up): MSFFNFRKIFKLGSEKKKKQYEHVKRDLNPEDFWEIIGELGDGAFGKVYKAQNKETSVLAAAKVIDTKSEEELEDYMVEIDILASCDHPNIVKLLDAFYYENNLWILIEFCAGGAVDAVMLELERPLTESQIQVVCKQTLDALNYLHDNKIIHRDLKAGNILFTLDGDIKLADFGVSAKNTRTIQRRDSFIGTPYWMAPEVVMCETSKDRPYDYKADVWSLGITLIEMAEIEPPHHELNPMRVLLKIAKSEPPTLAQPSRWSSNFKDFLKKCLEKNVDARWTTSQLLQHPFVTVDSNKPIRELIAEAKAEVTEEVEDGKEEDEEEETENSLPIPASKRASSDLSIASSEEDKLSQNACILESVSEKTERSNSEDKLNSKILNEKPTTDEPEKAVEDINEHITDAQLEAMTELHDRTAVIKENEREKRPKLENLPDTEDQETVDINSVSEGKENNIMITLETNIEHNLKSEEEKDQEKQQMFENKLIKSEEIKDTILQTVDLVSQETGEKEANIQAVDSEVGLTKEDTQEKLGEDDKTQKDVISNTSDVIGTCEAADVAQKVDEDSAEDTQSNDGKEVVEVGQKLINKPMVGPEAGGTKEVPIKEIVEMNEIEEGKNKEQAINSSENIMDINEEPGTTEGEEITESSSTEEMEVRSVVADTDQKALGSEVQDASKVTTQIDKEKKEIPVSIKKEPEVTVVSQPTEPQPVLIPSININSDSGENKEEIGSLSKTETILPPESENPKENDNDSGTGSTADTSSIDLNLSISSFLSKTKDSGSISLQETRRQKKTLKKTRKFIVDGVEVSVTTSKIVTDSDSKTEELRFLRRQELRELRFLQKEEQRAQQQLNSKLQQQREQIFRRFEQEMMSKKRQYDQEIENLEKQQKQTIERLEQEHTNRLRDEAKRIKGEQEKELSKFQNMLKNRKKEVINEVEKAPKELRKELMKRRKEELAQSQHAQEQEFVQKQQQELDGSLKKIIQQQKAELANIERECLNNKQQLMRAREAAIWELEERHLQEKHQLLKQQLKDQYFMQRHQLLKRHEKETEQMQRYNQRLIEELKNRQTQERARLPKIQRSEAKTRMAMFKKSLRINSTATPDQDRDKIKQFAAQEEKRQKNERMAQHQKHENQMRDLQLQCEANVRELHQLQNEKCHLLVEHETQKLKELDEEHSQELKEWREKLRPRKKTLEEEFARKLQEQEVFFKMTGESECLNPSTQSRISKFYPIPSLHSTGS
The subject of experiment [3] is Epidermal growth factor receptor (Homo sapiens), P00533 [UNDEFINED MUTATION]. The experiment is described as follows: Inhibition of EGFR E746-A750del mutant (unknown origin) assessed as residual activity at 100 nM by KINOMEscan analysis relative to control.
Experiment [4] has as its target T2, Casein kinase I isoform alpha-like (Homo sapiens) (UniProt Q8N752).
T2 sequence (whole entry): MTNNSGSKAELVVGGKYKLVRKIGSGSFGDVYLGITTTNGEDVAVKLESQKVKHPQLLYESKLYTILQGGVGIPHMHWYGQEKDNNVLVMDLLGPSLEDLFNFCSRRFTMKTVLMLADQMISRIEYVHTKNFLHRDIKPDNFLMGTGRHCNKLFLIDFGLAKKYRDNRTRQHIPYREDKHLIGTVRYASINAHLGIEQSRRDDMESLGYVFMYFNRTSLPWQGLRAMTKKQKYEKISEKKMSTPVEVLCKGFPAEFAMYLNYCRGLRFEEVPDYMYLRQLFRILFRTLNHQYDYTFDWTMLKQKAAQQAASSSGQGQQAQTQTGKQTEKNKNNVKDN
The experiment is described as follows: Inhibition of CSNK1A1L (unknown origin) assessed as residual activity at 100 nM by KINOMEscan analysis relative to control.

Experiment [5] concerns the target T3, Dual specificity mitogen-activated protein kinase kinase 6 (Homo sapiens) (UniProt P52564).
T3 sequence (whole entry): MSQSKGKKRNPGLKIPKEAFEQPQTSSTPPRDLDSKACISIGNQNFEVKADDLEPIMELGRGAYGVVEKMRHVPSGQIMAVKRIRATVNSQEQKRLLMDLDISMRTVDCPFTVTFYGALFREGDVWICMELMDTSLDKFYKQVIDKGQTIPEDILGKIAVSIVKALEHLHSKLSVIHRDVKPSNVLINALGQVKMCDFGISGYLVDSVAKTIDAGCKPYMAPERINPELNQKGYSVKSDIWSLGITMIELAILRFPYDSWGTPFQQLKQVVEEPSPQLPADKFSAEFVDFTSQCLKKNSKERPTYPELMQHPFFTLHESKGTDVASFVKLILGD
The experiment is described as follows: Inhibition of MEK6 (unknown origin) assessed as residual activity at 100 nM by KINOMEscan analysis relative to control.

The subject of experiment [6] is Mast/stem cell growth factor receptor Kit (Homo sapiens), P10721 [V559D]. The experiment is described as follows: Inhibition of KIT V559D mutant (unknown origin) assessed as residual activity at 100 nM by KINOMEscan analysis relative to control.
The test system of experiment [7] is Tyrosine-protein kinase ABL1 (Homo sapiens), P00519 [Q252H]. The experiment is described as follows: Inhibition of phosphorylated ABL1 Q252H mutant (unknown origin) assessed as residual activity at 100 nM by KINOMEscan analysis relative to control.

Chain of Mast/stem cell growth factor receptor Kit (Homo sapiens), P10721 [V559D] (P10721 whole entry V559D): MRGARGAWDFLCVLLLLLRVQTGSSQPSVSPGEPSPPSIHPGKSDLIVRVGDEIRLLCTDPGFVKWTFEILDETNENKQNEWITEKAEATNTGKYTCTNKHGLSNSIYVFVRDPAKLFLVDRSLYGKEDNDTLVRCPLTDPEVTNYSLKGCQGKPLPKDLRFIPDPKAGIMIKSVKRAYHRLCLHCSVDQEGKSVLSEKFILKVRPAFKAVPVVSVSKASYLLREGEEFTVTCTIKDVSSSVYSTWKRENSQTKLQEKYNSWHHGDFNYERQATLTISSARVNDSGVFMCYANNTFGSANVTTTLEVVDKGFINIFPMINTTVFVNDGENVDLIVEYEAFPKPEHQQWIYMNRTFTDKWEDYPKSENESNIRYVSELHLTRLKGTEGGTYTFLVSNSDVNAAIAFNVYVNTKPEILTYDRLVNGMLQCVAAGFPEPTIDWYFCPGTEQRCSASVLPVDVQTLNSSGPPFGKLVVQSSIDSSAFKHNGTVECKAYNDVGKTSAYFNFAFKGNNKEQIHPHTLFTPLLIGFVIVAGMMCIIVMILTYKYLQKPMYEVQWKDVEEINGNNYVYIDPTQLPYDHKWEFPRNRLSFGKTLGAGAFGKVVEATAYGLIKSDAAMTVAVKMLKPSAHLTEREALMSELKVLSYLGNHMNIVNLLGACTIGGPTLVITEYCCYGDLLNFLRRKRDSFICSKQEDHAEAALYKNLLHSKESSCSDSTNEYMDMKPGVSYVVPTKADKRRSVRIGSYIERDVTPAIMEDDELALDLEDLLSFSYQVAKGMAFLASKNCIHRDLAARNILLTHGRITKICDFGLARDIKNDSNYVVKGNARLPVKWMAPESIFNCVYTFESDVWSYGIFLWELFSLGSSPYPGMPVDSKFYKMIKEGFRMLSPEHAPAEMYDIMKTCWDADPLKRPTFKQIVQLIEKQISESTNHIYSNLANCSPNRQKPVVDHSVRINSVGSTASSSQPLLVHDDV
Chain of Epidermal growth factor receptor (Homo sapiens), P00533 [UNDEFINED MUTATION] (P00533 whole entry, looked up, stated change not applied, canonical isoform): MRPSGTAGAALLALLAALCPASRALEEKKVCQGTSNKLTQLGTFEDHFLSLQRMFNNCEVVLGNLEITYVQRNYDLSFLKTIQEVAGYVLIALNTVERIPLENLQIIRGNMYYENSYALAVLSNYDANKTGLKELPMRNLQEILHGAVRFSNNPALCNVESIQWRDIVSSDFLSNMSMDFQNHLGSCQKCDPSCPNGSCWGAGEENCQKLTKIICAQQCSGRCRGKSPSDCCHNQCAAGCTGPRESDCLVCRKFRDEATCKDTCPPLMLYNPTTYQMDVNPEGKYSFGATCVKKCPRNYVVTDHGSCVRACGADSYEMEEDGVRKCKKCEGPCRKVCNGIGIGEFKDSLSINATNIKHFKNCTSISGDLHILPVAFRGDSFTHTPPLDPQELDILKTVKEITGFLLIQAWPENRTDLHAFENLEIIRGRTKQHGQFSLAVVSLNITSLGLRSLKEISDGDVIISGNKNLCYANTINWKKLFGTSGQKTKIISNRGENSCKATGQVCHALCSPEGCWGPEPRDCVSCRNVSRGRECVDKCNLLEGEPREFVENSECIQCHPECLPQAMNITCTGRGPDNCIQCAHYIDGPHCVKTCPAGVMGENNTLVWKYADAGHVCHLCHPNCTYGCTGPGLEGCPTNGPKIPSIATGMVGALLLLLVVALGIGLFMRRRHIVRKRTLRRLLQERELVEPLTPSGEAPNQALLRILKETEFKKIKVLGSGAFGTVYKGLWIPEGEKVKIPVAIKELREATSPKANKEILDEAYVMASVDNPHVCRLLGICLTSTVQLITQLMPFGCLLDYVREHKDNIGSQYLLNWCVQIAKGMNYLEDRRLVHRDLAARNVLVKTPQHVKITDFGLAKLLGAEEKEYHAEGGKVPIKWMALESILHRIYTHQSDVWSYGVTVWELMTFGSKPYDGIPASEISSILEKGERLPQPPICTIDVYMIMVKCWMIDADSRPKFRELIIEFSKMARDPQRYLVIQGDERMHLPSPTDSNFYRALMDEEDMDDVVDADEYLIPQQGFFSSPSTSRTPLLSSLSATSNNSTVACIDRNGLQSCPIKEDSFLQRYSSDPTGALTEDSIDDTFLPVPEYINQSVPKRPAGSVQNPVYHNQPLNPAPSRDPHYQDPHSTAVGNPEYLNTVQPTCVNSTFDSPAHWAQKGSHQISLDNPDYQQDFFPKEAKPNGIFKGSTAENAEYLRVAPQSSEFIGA

Turning to `COc1cc2nc(C)nc(NC(C)c3ccc(-c4cnc5n4CCC5)s3)c2cc1OC` (configuration not stated), the 50% inhibitory concentration (IC50) in experiment [1] amounted to 5.34 µM.
Turning to `COc1cc2ncnc(N[C@H](C)c3cccc4ccccc34)c2cc1OC`, the Activity worked out at 100% in experiment [2]; 88% in experiment [3]; 100% in experiment [4]; 98% in experiment [5]; 100% in experiment [6]; 96% in experiment [7].

The term IC50 denotes the concentration that inhibits the measured activity by half.

Source of the values: ChEMBL document CHEMBL5678818, “Discovery of potent SOS1 inhibitors that block RAS activation via disruption of the RAS-SOS1 interaction” (Proc Natl Acad Sci U S A, 2019).
